How the values were obtained:
[1] = tested on: spontaneously hypertensive male rats, strain MHS; test: Anti-hypertensive activity in the spontaneously hypertensive rat (MHS): blood pressure and heart rate at the tail; format: in vivo
Procedure: 1. Spontaneously Hypertensive Rat (MHS)
Four spontaneously hypertensive male rats, strain MHS, weight 250 to 300 g for each group were used. The animals were treated for four consecutive days. The drugs were administered by gastric gavage while suspended in 5% arabic gum (0.2 ml/100 g body weight), and blood pressure (BP) and heart rate (HR) were measured at the tail by BP Recorder W+W. Blood pressure and heart rate were measured on the first and fourth day of treatment 1 hour before and 1 and 5 hours after drug administration.

normotensive rats = test: Blood pressure and heart rate in the conscious normotensive rat (NR); format: in vivo; conditions: 5 mg/kg os
Procedure: Blood pressure recordings have been made in conscious normotensive unrestrained rats weighing approximately 300 g, via a catheter chronically inserted into the left common carotid artery. Implantation of arterial cannula was made under sodium pentobarbital anesthesia (50 mg/kp i.p.) A 1 cm long incision was made through the previously shaved ventral surface of the neck and the tissues overlying the trachea parted by blunt dissection to reveal the carotid artery. The polyethylene catheter used was made with PE 50 tubing, previously filled with saline containing 250 I.U./ml heparin. The tip of the cannula was pushed at least 2 cm inside the vessel toward the heart. The cannula was then firmly tied and passed beneath the skin to emerge from a small incision in the back of the neck. During the post-operative period and before the start of each recording session, the cannula was flushed through daily with saline containing heparin (250 I.U./ml). The experiments were performed two days after surgery. Drugs were administered by gastric gavage.

[2] = Acute toxicity (LD50) in mice; format: in vivo, mouse; conditions: mouse, in vivo; male mice; oral; observed for seven days
Text: Evaluation of the Toxicity (LD50)
Ten male mice for each group were orally treated with drugs at different dose levels for the determination of lethal dose 50 (LD50).

## CN1C[C@H](CC(C#N)C(=O)NCc2ccccc2)C[C@@H]2c3cccc4[nH]cc(c34)C[C@H]21 (stereo partly drawn) [Example 1131, 2-Cyano-3-(6'-methylergoline-8'β)-N-benzylpropionamide]
[1]; 2 mg/kg os
  Change in BP, 1 hr after dose, first day: -26 mm Hg
  Change in HR, 1 hr after dose, first day: -20 b/min
  Change in HR, 5 hr after dose, first day: +5 b/min
  Change in BP, 5 hrs after dose, first day: -9 mm Hg
  Change in BP, 1 hr after dose, fourth day: -22 mm Hg
  Change in HR, 1 hr after dose, fourth day: -55 b/min
  Change in HR, 5 hr after dose, fourth day: +5 b/min
  Change in BP, 5 hrs after dose, fourth day: -25 mm Hg
[1]; 5 mg/kg os
  Change in BP, 1 hr after dose, first day: -48 mm Hg
  Change in HR, 1 hr after dose, first day: -18 b/min
  Change in HR, 5 hr after dose, first day: +10 b/min
  Change in BP, 5 hrs after dose, first day: -43 mm Hg
  Change in BP, 1 hr after dose, fourth day: -17 mm Hg
  Change in HR, 1 hr after dose, fourth day: +18 b/min
  Change in HR, 5 hr after dose, fourth day: -8 b/min
  Change in BP, 5 hrs after dose, fourth day: -16 mm Hg
Normotensive rats
  Change in Blood Pressure after Treatment, 30': -22 mm Hg
  Change in heart rate after treatment, 30': -20 b/min
  Change in Blood Pressure after Treatment, 60': -22 mm Hg
  Change in heart rate after treatment, 60': -30 b/min
  Change in Blood Pressure after Treatment, 120': -23 mm Hg
  Change in heart rate after treatment, 120': -20 b/min
  Change in Blood Pressure after Treatment, 180': -20 mm Hg
  Change in heart rate after treatment, 180': -20 b/min
  Change in Blood Pressure after Treatment, 240': -19 mm Hg
  Change in heart rate after treatment, 240': -10 b/min
  Change in Blood Pressure after Treatment, 360': -10 mm Hg
  Change in heart rate after treatment, 360': +10 b/min
  Change in Blood Pressure after Treatment, 24h: 0 mm Hg
  Change in heart rate after treatment, 24h: +10 b/min
[2]
  LD50 at 168 h: > 1000 mg/kg

## NNc1nncc2ccccc12 [Hydralazine, hydralazine, reference compound]
[1]; 2 mg/kg os
  Change in BP, 1 hr after dose, first day: +2 mm Hg
  Change in HR, 1 hr after dose, first day: +10 b/min
  Change in HR, 5 hr after dose, first day: -28 b/min
  Change in BP, 5 hrs after dose, first day: +18 mm Hg
  Change in BP, 1 hr after dose, fourth day: +7 mm Hg
  Change in HR, 1 hr after dose, fourth day: +43 b/min
  Change in HR, 5 hr after dose, fourth day: +23 b/min
  Change in BP, 5 hrs after dose, fourth day: +15 mm Hg
[1]; 5 mg/kg os
  Change in BP, 1 hr after dose, first day: -52 mm Hg
  Change in HR, 1 hr after dose, first day: -45 b/min
  Change in HR, 5 hr after dose, first day: +12 b/min
  Change in BP, 5 hrs after dose, first day: -38 mm Hg
  Change in BP, 1 hr after dose, fourth day: -7 mm Hg
  Change in HR, 1 hr after dose, fourth day: +10 b/min
  Change in HR, 5 hr after dose, fourth day: +12 b/min
  Change in BP, 5 hrs after dose, fourth day: -8 mm Hg
Normotensive rats
  Change in Blood Pressure after Treatment, 30': -19 mm Hg
  Change in heart rate after treatment, 30': +70 b/min
  Change in Blood Pressure after Treatment, 60': -13 mm Hg
  Change in heart rate after treatment, 60': +40 b/min
  Change in Blood Pressure after Treatment, 120': -10 mm Hg
  Change in heart rate after treatment, 120': +21 b/min
  Change in Blood Pressure after Treatment, 180': -7 mm Hg
  Change in heart rate after treatment, 180': +9 b/min
  Change in Blood Pressure after Treatment, 240': -5 mm Hg
  Change in heart rate after treatment, 240': +21 b/min
  Change in Blood Pressure after Treatment, 360': -7 mm Hg
  Change in heart rate after treatment, 360': +12 b/min
  Change in Blood Pressure after Treatment, 24h: 0 mm Hg
  Change in heart rate after treatment, 24h: +3 b/min
[2]
  LD50 at 168 h: 122 mg/kg

## CN1C[C@H](CC(C#N)C(N)=O)C[C@@H]2c3cccc4[nH]cc(c34)C[C@H]21 (stereo partly drawn) [355/1057, 2-Cyano-3-(6'-methylergoline-8'β)-propionamide]
[1]; 2 mg/kg os
  Change in BP, 1 hr after dose, first day: -25 mm Hg
  Change in HR, 1 hr after dose, first day: 0 b/min
  Change in HR, 5 hr after dose, first day: -8 b/min
  Change in BP, 5 hrs after dose, first day: 0 mm Hg
  Change in BP, 1 hr after dose, fourth day: -26 mm Hg
  Change in HR, 1 hr after dose, fourth day: -2 b/min
  Change in HR, 5 hr after dose, fourth day: -5 b/min
  Change in BP, 5 hrs after dose, fourth day: -31 mm Hg
[1]; 5 mg/kg os
  Change in BP, 1 hr after dose, first day: -51 mm Hg
  Change in HR, 1 hr after dose, first day: +5 b/min
  Change in HR, 5 hr after dose, first day: +35 b/min
  Change in BP, 5 hrs after dose, first day: -41 mm Hg
  Change in BP, 1 hr after dose, fourth day: -45 mm Hg
  Change in HR, 1 hr after dose, fourth day: +25 b/min
  Change in HR, 5 hr after dose, fourth day: +20 b/min
  Change in BP, 5 hrs after dose, fourth day: -31 mm Hg
Normotensive rats
  Change in Blood Pressure after Treatment, 30': -23 mm Hg
  Change in heart rate after treatment, 30': -25 b/min
  Change in Blood Pressure after Treatment, 60': -23 mm Hg
  Change in heart rate after treatment, 60': -40 b/min
  Change in Blood Pressure after Treatment, 120': -22 mm Hg
  Change in heart rate after treatment, 120': -42 b/min
  Change in Blood Pressure after Treatment, 180': -21.7 mm Hg
  Change in heart rate after treatment, 180': -22 b/min
  Change in Blood Pressure after Treatment, 240': -23 mm Hg
  Change in heart rate after treatment, 240': +10 b/min
  Change in Blood Pressure after Treatment, 360': -20 mm Hg
  Change in heart rate after treatment, 360': +3 b/min
  Change in Blood Pressure after Treatment, 24h: -12 mm Hg
  Change in heart rate after treatment, 24h: +6 b/min
[2]
  LD50 at 168 h: > 1000 mg/kg

## CN1C[C@H](CC(C#N)C(N)=O)C[C@@H]2c3cccc4[nH]c(Br)c(c34)C[C@H]21 (stereo partly drawn) [Example 1139, 2-Cyano-3-(2-bromo-6'-methylergoline-8'β)-propionamide]
[1]; 2 mg/kg os
  Change in BP, 1 hr after dose, first day: -13 mm Hg
  Change in HR, 1 hr after dose, first day: +7 b/min
  Change in HR, 5 hr after dose, first day: +12 b/min
  Change in BP, 5 hrs after dose, first day: -23 mm Hg
  Change in BP, 1 hr after dose, fourth day: -18 mm Hg
  Change in HR, 1 hr after dose, fourth day: +47 b/min
  Change in HR, 5 hr after dose, fourth day: +35 b/min
  Change in BP, 5 hrs after dose, fourth day: -12 mm Hg
[1]; 5 mg/kg os
  Change in BP, 1 hr after dose, first day: -25 mm Hg
  Change in HR, 1 hr after dose, first day: +28 b/min
  Change in HR, 5 hr after dose, first day: +13 b/min
  Change in BP, 5 hrs after dose, first day: -24 mm Hg
  Change in BP, 1 hr after dose, fourth day: -12 mm Hg
  Change in HR, 1 hr after dose, fourth day: -10 b/min
  Change in HR, 5 hr after dose, fourth day: -12 b/min
  Change in BP, 5 hrs after dose, fourth day: -13 mm Hg
Normotensive rats
  Change in Blood Pressure after Treatment, 30': -5 mm Hg
  Change in heart rate after treatment, 30': 0 b/min
  Change in Blood Pressure after Treatment, 60': -12 mm Hg
  Change in heart rate after treatment, 60': +10 b/min
  Change in Blood Pressure after Treatment, 120': -12 mm Hg
  Change in heart rate after treatment, 120': +10 b/min
  Change in Blood Pressure after Treatment, 180': -10 mm Hg
  Change in heart rate after treatment, 180': -5 b/min
  Change in Blood Pressure after Treatment, 240': -5 mm Hg
  Change in heart rate after treatment, 240': 0 b/min
  Change in Blood Pressure after Treatment, 360': 0 mm Hg
  Change in heart rate after treatment, 360': +15 b/min
  Change in Blood Pressure after Treatment, 24h: +2 mm Hg
  Change in heart rate after treatment, 24h: 0 b/min
[2]
  LD50 at 168 h: 125 mg/kg
